Reference: patent US20230210864A1, “AGENT FOR PROMOTING CORNEAL ENDOTHELIAL CELL ADHESION” (Senju Pharmaceutical Co., Ltd., priority 2007, published 2023)

Assays:
[1] = system: human corneal endothelial cells; test: Primary culture of human corneal endothelial cells with Y-27632, phase contrast observation; type: cell-based; conditions: Y-27632 10 μM
Procedure: Of human corneal tissues obtained from the US eye bank, the central part (diameter 7 mm) had been used for corneal transplantation and the remaining surrounding corneal tissue was used. The Descemet's membrane with corneal endothelial cells adhered thereto was separated. For the ROCK inhibitor(+) group, the Descemet's membrane was placed in a medium for corneal endothelium added with Y-27632 (10 μM) and incubated under the conditions of 37° C., 5% CO2 for 10 min. For the ROCK inhibitor(−) group, the membrane was placed in a medium for corneal endothelium without addition of Y-27632 and incubated for 10 min under the same conditions. As the medium for corneal endothelium, the same culture medium as in Example 1 was used. The Descemet's membrane after the incubation was incubated together with Dispase II (1.2 U/ml, Roche Applied Science) under the conditions of 37° C., 5% CO2 for 45 min, and the corneal endothelial cells were mechanically separated by a pipetting operation. The separated corneal endothelial cells were centrifuged and stirred in the media for corneal endothelium with Y-27632(+) and Y-27632(−) to the same concentration, and the cells were seeded on a 48 well plate pre-treated with an FNC coating mix (Athena ES) at a density of about 10000 cells per well. […]

[2] = system: monkey corneal endothelial cells; test: Primary culture of monkey corneal endothelial cells, toluidine blue staining, total area of cultured cells (Image J); type: cell-based, Macaca fascicularis; conditions: Y-27632 10 μM, day 10
Procedure: From the corneal tissue isolated from Macaca fascicularis euthanized, Descemet's membrane with corneal endothelial cells attached thereto was separated. In the same manner as in Example 2, for the ROCK inhibitor(+) group, the Descemet's membrane was placed in a medium for corneal endothelium added with Y-27632 (10 μM) and incubated under the conditions of 37° C., 5% CO2 for 10 min. For the ROCK inhibitor(−) group, the membrane was placed in a medium for corneal endothelium without addition of Y-27632 and incubated for 10 min under the same conditions. As the medium for corneal endothelium, the same cell culture medium as in Example 1 was used. The Descemet's membrane after the incubation was incubated together with Dispase II (1.2 U/ml, Roche Applied Science) under the conditions of 37° C., 5% CO2 for 45 min, and the corneal endothelial cells were mechanically separated by a pipetting operation. The separated corneal endothelial cells were centrifuged and stirred in the media for corneal endothelium with Y-27632(+) and Y-27632(−) to the same concentration, and the cells were seeded on a 96 well plate at a density of about 2000 cells per well. […] The total area of the cells was measured using Image J (National Institutes of Health) and analyzed (FIG. 6C).

[3] = system: monkey corneal endothelial cells; test: Optimal concentration of Y-27632 for monkey corneal endothelial cells, viable cell count by CellTiter-Glo; type: cell-based, Macaca fascicularis
Procedure: Monkey corneal endothelial cells (primary culture) collected in the same manner as in Example 2 were placed in media for corneal endothelium each added with Y-27632 at 1, 10, 33 and 100 μM and a medium for corneal endothelium without addition of Y-27632, and stirred to the same concentration, and the cells were seeded on a 96 well plate at a density of about 2000 cells per well. At 24 hr from the start of the culture, viable cells were counted using CellTiter-Glo (registered trade mark, Promega) (FIG. 7).

[4] = system: monkey corneal endothelial cells; test: Cell morphology in passage culture of monkey corneal endothelial cells (phase contrast, phalloidin fluorescence staining); type: cell-based, Macaca fascicularis; conditions: passage culture on slide glass
Procedure: The Macaca fascicularis corneal endothelial cells passage-cultured in the same manner as in Example 6 were subcultured on a slide glass to a dilution of ¼. […] Furthermore, the corneal endothelial cells on the slide glass were fixed with 4% para-formaldehyde at room temperature for 10 min, and actin fiber was stained by phalloidin fluorescence staining (FIGS. 10A and 10B).

[5] = system: monkey corneal endothelial cells; test: Apoptosis of monkey corneal endothelial cells (flow cytometry with Annexin V and PI); type: cell-based, Macaca fascicularis; conditions: Y-27632 10 μM, day 1 of the passage culture
Procedure: The Macaca fascicularis corneal endothelial cells passage-cultured in the same manner as in Example 6 were subcultured to a dilution of ¼. A medium for corneal endothelium added with Y-27632 (10 μM) was used for the ROCK inhibitor(+) group and a medium for corneal endothelium without addition of Y-27632 was used for the ROCK inhibitor(−) group. On day 1 of the passage culture, all the cells including those in the medium were collected using 0.05% trypsin and subjected to flow cytometry using Annexin V and PI (Propidium Iodide), and apoptosis was examined (FIGS. 14 and 15).

CC(N)[C@H]1CC[C@H](C(=O)Nc2ccncc2)CC1 (single isomer, unassigned; (+)) [Y-27632, (+)-trans-4-(1-aminoethyl)-1-(4-pyridylcarbamoyl)cyclohexane]
cell layer morphology and density on day 7 after the start of the culture [1]: a confluent and highly dense single cell layer consisting of cells (uniform polygonal cells) similar to normal corneal endothelial cells was formed
total area of cultured cells as compared to the ROCK inhibitor(−) [2]: about 1.6 fold
most effective concentration for monkey corneal endothelial cells ([3]; of 1, 10, 33 and 100 μM, 24 hr): 10 µM
number of cells that adhered onto the plate at 24 hr, compared to medium without Y-27632 and media with other concentrations ([3]; primary culture, 10 μM Y-27632 (1, 10, 33 and 100 μM tested)): significantly high
actin stress fiber (phalloidin fluorescence staining) ([4]; 24 hr): actin stress fiber was clearly observed
cell adhesion and morphology at 24 hr after the passage (phase contrast) ([4]; dilution ¼): adhesion of the cells onto the slide glass increased, flattening to corneal endothelial cell-like cells was promoted, and aggregation of cells also increased
number of apoptotic cells per 1×10^4 cells, compared to ROCK inhibitor(−) group [5]: significant decrease
ratio of apoptotic cells to the entire cells, compared to ROCK inhibitor(−) group [5]: significant decrease
